Assay results: patent US10940135B2, “Paclitaxel pharmaceutical composition and pharmaceutical preparation thereof, preparation process and use thereof” (Sinotherapeutics Inc., priority 2016, dated 2021)
In brackets after ≈: the same amount, converted by molar mass.

Tests used:
[1] = Apparent solubility determination in pH 6.8 phosphate buffer; assay type: physicochemical
Experimental: Apparent solubility determination: an excessive amount of the pharmaceutical compositions was weighed and put into a container. Phosphate buffer solution with pH6.8 was added respectively. The volume of the phosphate buffer solution was about 2/3 of volume of the container. The container was then shaken in a shaking table at 37° C. for 3 h. The resulting solution was filtered with a 0.45 μm filter membrane, then the filtrate was collected, further diluted with an appropriate amount of methanol, mixed by vortex and analyzed by HPLC.
Wherein the HPLC analysis parameters are as follows: […]

[2] = Dissolution determination (USP II method, pH 6.8 buffer + 0.2% Tween 80); assay type: physicochemical; settings: pH 6.8 buffer + 0.2% Tween 80, 100 rpm, 37.5° C.
From the text: Dissolution Determination:
Wherein pH6.8 represents the environment simulating the human intestinal tract (small intestine).
Analysis of dissolved sample: the solution obtained in the dissolution determination test was filtered with a 0.45 μm filter membrane, then the filtrate was collected, further diluted with an appropriate amount of methanol, mixed by vortex and analyzed by HPLC. The HPLC analysis method of the dissolved sample was the same as the HPLC analysis method mentioned above in the solubility determination.

[3] = cited from earlier work
[4] = cited from earlier work; remark: listed apart in the source
[5] = reported as 0.1˜<10 μg/ml; cited from earlier work

For `CC(=O)O[C@H]1C(=O)[C@@]2(C)[C@H]([C@H](OC(=O)c3ccccc3)[C@]3(O)C[C@H](OC(=O)[C@H](O)[C@@H](NC(=O)c4ccccc4)c4ccccc4)C(C)=C1C3(C)C)[C@]1(OC(C)=O)CO[C@@H]1C[C@@H]2O` [Bulk drug, 5β,20-epoxy-1,2α,4,7β,10β,13α-hexahydroxytaxane-11-ene-9-one-4,10-diacetate-2-benzoate-13[(2′R,3′S)—N-benzoyl-3-phenylisoserine ester]], the “Ratio of solubility (composition/bulk drug)” value [1] was 1, the solubility at 3 h ([1]; aqueous buffer, thermodynamic from solid, apparent solubility, 37° C., shaken 3 h) was 4 µg/mL (≈ 4.68 µM) and the Dissolution % ([2]; 15 min) was 13.1%. It also gave a Dissolution % ([2]; 30 min) of 14.5%, a Dissolution % ([2]; 45 min) of 14.6% and a Dissolution % ([2]; 60 min) of 14.8%. The Dissolution % ([2]; 120 min) was 14.1%, the pKa [3] was 11.99 and the oral bioavailability [4] was “about 2%”. The solubility in water [5] was “lower than 10 μg/ml”.
